How the values were obtained:
[1] = biological target: T1, RNF213 (mouse, full-length) (Mus musculus, UniProt E9Q555); assay: cryo-EM structure; type: binding; details: co-purified ATP, Mg; bound to catalytically inactive AAA2, contacts from AAA3
T1 construct: full length, 5148 residues, 584 kDa, C-terminal Gly3-His10 tag kept; codon-optimised, High Five insect cells; monomer; modelled residues 476-5148

[2] = biological target: T1, RNF213 (mouse, full-length); assay: NADH-coupled ATPase assay; type: biochemical; details: 2 mM ATP, equimolar MgCl2 added, pH 7.2, 30 C; AAA3 and AAA4 proposed competent sites; rate only in figure
[3] = biological target: T2, RNF213 (mouse, full-length) (Mus musculus, UniProt E9Q555, R4753K); assay: NADH-coupled ATPase assay; type: biochemical; details: 2 mM ATP, equimolar MgCl2 added, pH 7.2, 30 C; Moyamoya founder mutant (human R4810K); rate only in figure
T2 construct: full length, 5148 residues, 584 kDa, C-terminal Gly3-His10 tag kept; codon-optimised, High Five insect cells; monomer; modelled residues 476-5148
T2 sequence (E9Q555 whole entry R4753K, the tested form may be a part): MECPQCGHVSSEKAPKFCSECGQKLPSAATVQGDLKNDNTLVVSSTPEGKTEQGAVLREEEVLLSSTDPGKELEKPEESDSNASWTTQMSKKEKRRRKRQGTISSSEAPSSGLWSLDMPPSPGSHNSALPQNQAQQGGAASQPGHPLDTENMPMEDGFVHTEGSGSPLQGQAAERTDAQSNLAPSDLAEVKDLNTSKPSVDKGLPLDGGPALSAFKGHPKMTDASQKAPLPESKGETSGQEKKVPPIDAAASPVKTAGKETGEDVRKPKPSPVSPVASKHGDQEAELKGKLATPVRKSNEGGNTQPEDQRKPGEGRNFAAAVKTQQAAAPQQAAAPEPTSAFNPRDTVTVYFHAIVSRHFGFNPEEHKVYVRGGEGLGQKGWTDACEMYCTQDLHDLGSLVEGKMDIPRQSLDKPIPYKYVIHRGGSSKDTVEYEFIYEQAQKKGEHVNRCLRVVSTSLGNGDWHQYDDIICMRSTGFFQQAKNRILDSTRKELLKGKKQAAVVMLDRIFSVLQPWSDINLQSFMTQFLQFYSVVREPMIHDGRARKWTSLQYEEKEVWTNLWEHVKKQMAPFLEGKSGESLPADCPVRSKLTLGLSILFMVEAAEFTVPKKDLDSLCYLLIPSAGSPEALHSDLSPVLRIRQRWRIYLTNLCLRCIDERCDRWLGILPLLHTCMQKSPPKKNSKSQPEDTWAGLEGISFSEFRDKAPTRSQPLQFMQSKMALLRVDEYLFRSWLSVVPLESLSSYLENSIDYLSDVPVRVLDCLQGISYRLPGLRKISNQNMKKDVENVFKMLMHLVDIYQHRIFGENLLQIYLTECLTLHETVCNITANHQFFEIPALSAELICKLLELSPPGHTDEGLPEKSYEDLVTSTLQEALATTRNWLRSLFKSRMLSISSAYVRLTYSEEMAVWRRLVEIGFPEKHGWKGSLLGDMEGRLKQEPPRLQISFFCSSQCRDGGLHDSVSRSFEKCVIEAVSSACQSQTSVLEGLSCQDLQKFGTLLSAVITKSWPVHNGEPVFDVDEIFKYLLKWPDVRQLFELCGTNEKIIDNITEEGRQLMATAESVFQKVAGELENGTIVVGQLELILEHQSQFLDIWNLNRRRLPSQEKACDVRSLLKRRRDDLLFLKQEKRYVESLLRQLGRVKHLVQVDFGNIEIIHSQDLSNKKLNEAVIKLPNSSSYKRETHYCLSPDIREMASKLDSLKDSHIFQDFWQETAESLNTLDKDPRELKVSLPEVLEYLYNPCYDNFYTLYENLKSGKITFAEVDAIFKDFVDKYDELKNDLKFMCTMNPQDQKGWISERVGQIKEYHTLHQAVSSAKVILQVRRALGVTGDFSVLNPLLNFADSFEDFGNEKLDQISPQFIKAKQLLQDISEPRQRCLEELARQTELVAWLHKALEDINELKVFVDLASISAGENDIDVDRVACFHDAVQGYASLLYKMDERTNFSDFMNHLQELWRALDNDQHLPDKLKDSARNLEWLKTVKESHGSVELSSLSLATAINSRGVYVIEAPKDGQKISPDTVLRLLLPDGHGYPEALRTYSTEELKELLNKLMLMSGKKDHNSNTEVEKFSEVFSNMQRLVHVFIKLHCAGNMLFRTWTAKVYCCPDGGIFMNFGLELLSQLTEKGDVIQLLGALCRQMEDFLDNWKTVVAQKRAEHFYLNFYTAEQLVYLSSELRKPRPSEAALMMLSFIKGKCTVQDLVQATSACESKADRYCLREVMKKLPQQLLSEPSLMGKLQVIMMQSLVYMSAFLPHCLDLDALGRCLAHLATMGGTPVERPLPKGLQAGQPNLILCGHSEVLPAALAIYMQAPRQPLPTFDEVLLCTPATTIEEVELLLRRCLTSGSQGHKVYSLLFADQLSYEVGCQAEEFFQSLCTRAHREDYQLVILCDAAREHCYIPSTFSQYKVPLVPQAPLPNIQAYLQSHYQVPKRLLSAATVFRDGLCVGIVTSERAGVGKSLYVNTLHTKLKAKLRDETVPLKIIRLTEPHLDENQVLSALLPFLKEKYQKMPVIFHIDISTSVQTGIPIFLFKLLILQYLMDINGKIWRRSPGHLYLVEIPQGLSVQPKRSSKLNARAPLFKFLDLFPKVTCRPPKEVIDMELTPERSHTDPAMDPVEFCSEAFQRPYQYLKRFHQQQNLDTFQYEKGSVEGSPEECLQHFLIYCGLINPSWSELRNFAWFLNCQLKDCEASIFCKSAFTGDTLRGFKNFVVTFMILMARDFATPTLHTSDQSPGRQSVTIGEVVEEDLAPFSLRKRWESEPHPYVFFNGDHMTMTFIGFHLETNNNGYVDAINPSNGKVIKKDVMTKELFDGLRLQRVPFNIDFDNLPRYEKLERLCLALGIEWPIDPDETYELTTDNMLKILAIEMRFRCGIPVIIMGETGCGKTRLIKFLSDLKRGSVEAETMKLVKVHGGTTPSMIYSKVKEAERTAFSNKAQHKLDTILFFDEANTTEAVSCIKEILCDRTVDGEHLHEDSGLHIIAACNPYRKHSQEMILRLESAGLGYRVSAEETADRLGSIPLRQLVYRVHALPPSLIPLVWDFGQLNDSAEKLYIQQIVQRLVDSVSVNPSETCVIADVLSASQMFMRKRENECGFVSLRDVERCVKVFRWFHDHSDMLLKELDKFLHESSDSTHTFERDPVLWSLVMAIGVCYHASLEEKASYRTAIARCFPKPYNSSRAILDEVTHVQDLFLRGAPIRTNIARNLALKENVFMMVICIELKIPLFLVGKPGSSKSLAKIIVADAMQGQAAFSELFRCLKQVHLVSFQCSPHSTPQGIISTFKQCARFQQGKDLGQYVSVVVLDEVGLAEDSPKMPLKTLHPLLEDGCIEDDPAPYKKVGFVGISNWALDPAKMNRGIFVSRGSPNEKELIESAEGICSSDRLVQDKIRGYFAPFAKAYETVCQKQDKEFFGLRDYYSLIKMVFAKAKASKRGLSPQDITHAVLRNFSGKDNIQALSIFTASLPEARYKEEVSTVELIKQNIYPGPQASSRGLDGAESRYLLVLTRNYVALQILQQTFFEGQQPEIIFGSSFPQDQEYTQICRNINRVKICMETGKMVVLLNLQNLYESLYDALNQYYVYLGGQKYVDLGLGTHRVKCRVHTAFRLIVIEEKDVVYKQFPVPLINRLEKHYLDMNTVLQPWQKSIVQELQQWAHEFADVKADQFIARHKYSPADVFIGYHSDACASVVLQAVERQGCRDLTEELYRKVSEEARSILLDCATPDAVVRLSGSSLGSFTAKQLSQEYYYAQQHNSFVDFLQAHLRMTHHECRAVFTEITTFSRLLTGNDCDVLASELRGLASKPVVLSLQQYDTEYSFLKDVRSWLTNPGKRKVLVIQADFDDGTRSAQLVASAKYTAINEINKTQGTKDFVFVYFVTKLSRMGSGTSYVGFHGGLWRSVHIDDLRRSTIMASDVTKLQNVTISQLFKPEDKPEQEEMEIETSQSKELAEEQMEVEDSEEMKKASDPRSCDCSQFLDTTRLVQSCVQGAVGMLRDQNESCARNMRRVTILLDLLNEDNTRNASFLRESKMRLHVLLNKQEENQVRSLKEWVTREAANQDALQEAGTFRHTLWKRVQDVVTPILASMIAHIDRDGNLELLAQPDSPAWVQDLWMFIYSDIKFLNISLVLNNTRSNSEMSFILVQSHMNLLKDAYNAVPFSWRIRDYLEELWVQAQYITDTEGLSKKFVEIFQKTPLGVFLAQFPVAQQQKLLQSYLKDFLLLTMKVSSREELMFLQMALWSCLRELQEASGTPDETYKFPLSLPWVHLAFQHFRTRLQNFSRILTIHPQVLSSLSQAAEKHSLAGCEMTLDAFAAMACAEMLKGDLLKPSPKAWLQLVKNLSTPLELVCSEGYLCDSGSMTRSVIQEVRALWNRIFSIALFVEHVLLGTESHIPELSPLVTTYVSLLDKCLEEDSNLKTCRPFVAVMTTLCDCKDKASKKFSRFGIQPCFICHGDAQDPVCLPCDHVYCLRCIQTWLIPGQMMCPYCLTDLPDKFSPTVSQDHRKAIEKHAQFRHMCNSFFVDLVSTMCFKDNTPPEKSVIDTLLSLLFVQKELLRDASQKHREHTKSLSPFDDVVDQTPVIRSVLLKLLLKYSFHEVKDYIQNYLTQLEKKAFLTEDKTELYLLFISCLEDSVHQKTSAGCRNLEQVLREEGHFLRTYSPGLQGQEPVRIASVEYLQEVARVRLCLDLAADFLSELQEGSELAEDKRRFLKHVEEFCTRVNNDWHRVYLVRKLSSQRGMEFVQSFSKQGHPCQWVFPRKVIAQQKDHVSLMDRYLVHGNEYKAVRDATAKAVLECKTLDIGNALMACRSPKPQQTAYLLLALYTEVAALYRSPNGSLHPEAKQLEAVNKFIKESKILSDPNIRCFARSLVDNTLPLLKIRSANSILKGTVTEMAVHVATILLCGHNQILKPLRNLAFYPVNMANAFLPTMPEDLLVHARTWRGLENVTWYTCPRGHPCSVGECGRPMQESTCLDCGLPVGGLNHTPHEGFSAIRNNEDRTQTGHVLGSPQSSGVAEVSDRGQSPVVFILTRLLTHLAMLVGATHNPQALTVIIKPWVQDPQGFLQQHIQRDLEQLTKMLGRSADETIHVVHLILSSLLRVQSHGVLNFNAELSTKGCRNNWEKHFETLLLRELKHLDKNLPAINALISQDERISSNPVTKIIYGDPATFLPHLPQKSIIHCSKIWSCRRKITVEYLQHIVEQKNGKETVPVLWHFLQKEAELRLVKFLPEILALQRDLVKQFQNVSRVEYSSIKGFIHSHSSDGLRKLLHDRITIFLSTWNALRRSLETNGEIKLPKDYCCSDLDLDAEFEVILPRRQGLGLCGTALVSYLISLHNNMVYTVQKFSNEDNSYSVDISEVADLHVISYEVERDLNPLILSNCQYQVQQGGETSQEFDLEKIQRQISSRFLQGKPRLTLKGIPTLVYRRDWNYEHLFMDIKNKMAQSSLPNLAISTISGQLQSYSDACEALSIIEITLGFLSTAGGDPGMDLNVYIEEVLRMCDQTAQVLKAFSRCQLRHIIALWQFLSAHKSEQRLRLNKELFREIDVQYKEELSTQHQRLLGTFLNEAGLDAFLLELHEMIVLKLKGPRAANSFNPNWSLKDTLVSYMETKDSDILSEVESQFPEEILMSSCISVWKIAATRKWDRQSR

T1 sequence (E9Q555 whole entry, the tested form may be a part): as the sequence (E9Q555 whole entry R4753K, the tested form may be a part) above, with K4753R counted along it

## Nc1ncnc2c1ncn2[C@@H]1O[C@H](COP(=O)(O)OP(=O)(O)OP(=O)(O)O)[C@@H](O)[C@H]1O [ATP]
[1]
  cryo-EM structure: unambiguously revealed a co-purified ATP molecule that is bound to AAA2
[2]
  NADH-coupled ATPase assay: ATPase activity of RNF213 is an order of magnitude lower than that of a processive
[3]
  NADH-coupled ATPase assay: does not significantly alter the enzymatic properties of RNF213 in vitro

From publication PMC7311170, “Moyamoya disease factor RNF213 is a giant E3 ligase with a dynein-like core and a distinct ubiquitin-transfer mechanism” (eLife, 2020)
